The values that follow come from patent US11648242B2, “Pharmaceutical composition comprising pimavanserin, process of preparation and use thereof” (Aurobindo Pharma Ltd., priority 2019, dated 2023).

The conditions of series [1]: cited from earlier work.
A short description of series [2]: Particle size distribution (D90) of the API. It counts as physicochemical. The following applies: native amorphous pimavanserin tartrate API.
Series [3] is described as follows: Bulk density of the API. It counts as physicochemical. As to conditions: native amorphous pimavanserin tartrate API.

Counter-ions that a name gives are not always drawn.

As to `CC(C)COc1ccc(CNC(=O)N(Cc2ccc(F)cc2)C2CCN(C)CC2)cc1` [Pimavanserin tartrate, urea, N-[(4-fluorophenyl)methyl]-N-(1-methyl-4-piperidinyl)-N′-[[4-(2methylpropoxy)phenyl]methyl]-, (2R, 3R)-2,3-dihydroxybutanedioate (2:1)], the Solubility in water entry in series [1] is given as “freely soluble”.
Take `CC(C)COc1ccc(CNC(=O)N(Cc2ccc(F)cc2)C2CCN(C)CC2)cc1` [native amorphous pimavanserin tartrate]: the “Particle size distribution of API (D90)” value in series [2] was “about 100 μm”. In addition, the Bulk density in series [3] stood at 0.374 g/mL.
